In patent US20070219186A1, “Pyrazolo[1,5-A]pyrimidine derivatives and methods of use thereof” (priority 2006, published 2007) one finds IC50, inhibition and melting point data, which are given here for 15 compounds.

For orientation: IC50 means the concentration that gives 50% inhibition. As usually defined, the melting point is the temperature, or range, at which the solid turns liquid.

For one series, the target named is T1, human B-Raf (Homo sapiens, UniProt P15056).
T1 construct: Flag; GST; made in house; host or cells: Sf9 insect cells (B-Raf); E. coli (MEK1-GST)
T1 sequence (P15056 whole entry): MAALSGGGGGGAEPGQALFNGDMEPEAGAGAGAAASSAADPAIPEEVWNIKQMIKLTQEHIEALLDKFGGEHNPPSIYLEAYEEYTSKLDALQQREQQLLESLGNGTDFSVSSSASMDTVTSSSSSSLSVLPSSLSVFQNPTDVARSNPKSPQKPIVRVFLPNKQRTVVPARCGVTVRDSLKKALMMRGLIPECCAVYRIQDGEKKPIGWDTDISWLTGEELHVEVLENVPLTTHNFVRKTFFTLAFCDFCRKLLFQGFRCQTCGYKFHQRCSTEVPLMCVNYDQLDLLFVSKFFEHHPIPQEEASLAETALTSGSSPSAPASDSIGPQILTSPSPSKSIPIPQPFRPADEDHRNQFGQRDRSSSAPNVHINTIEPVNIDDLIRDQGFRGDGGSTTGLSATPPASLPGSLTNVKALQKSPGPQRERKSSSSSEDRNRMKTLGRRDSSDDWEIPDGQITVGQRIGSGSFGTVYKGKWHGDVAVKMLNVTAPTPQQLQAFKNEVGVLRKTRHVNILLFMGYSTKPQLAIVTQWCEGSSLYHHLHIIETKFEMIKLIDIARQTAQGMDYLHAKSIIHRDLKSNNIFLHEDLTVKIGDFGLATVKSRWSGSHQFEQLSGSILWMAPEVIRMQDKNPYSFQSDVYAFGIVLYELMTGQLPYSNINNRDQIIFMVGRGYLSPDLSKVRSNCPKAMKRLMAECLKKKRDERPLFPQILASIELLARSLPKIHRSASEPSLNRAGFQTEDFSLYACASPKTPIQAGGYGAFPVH
Kind of series: B-Raf Kinase to MEK1 ELISA. It is filed as biochemical. Conditions: for inhibition at 10 µM: read-out: % Inhib./10 uM. An outline of the steps:
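Flag/GST-tagged human B-Raf (Sf9, ~20 ng/point) phosphorylates non-active GST-MEK1 (50 nM final) with ATP and MgCl2 in MOPS pH 7.2 buffer, 60 min at RT. Product is captured on anti-GST plates; MEK1 pSer217/221 is read by phospho-antibody plus europium conjugate (DELFIA).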
On the technique in general: In an ELISA, binding on a coated surface is turned into a signal by an enzyme label.

Where [1] appears, read: median, cpd concentrations from 10 μM to 30 nM in half log dilutions, read-out: Median IC50.

Read-outs that look alike come from different tables or passages of the source.

Turning to `CN1CCC(c2cnn3c(-c4cccc(NC(=O)c5cccc(C(F)(F)F)c5)c4)ccnc23)CC1` [Example 309, N-{3-[3-(1-methylpiperidin-4-yl)pyrazolo[1,5-a]pyrimidin-7-yl]phenyl}-3-(trifluoromethyl)benzamide], the melting point lay in the range of 183 to 185 °C. Also, the IC50 on human B-Raf (setting [1]) came to 1.33 µM. The inhibition at 10 µM at human B-Raf came to 63%.
The corresponding values for `CN1CC=C(c2cnn3c(-c4cccc(NC(=O)c5cccc(C(F)(F)F)c5)c4)ccnc23)CC1` [Example 306, N-{3-[3-(1-methyl-1,2,3,6-tetrahydropyridin-4-yl)pyrazolo[1,5-a]pyrimidin-7-yl]phenyl}-3-(trifluoromethyl)benzamide] are 163 to 165 °C, 0.851 µM and 68%.
`CNc1ccc(-c2cnn3c(-c4cccc(NC(=O)c5cccc(C(F)(F)F)c5)c4)ccnc23)cn1` [Example 284, N-(3-{3-[6-(methylamino)pyridin-3-yl]pyrazolo[1,5-a]pyrimidin-7-yl}phenyl)-3-(trifluoromethyl)benzamide]: the IC50 on human B-Raf (setting [1]) was found to be 0.078 µM. For the same compound, the inhibition at 10 µM at human B-Raf was 92%.
The corresponding values for `CCOC(=O)c1cnn2c(-c3cccc(NC(=O)c4cc(F)cc(C(F)(F)F)c4)c3)ccnc12` [Example 75, ethyl 7-(3-{[3-fluoro-5-(trifluoromethyl)benzoyl]amino}phenyl)pyrazolo[1,5-a]pyrimidine-3-carboxylate] are 6.6 µM and 58%.
Taken in the same sequence, the figures for `O=C(O)c1cccc(-c2cnn3c(-c4cccc(NC(=O)c5cccc(C(F)(F)F)c5)c4)ccnc23)c1` [Example 314, 3-[7-(3-{[3-(trifluoromethyl)benzoyl]amino}phenyl)pyrazolo[1,5-a]pyrimidin-3-yl]benzoic acid] were 0.514 µM and 82%.
With `O=C(Nc1cccc(-c2ccnc3c(-c4ccc(CN5CCCC5)cc4)cnn23)c1)c1cccc(C(F)(F)F)c1` [Example 315, N-(3-{3-[4-(pyrrolidin-1-ylmethyl)phenyl]pyrazolo[1,5-a]pyrimidin-7-yl}phenyl)-3-(trifluoromethyl)benzamide], at human B-Raf, inhibition was half-maximal at 0.0205 µM (IC50) and the inhibition at 10 µM was found to be 102%.
`CCOC(=O)c1cnn2c(-c3cccc(NC(=O)c4cccc(Cl)c4)c3)ccnc12` [Example 70, Ethyl 7-{3-[(3-chlorobenzoyl)amino]phenyl}pyrazolo[1,5-a]pyrimidine-3-carboxylate]: the IC50 on human B-Raf (setting [1]) is above 10 µM. The inhibition at 10 µM on human B-Raf was determined as 0%.
On to `O=C(Nc1cccc(-c2ccnc3cc(N4CCOCC4)nn23)c1)c1ccc(F)c(C(F)(F)F)c1` [Example 196, 4-fluoro-N-[3-(2-morpholin-4-ylpyrazolo[1,5-a]pyrimidin-7-yl)phenyl]-3-(trifluoromethyl)benzamide], for which the IC50 on human B-Raf (setting [1]) was 0.09 µM. Besides, at human B-Raf, the inhibition at 10 µM is 96%.
With `CN1CCN(c2cc3nccc(-c4cccc(NC(=O)c5cccc(C(F)(F)F)c5)c4)n3n2)CC1` [Example 203, N-{3-[2-(4-methylpiperazin-1-yl)pyrazolo[1,5-a]pyrimidin-7-yl]phenyl}-3-(trifluoromethyl)benzamide], at human B-Raf, the IC50 is above 10 µM and the inhibition at 10 µM worked out at 16%.
For `CCOC(=O)c1cnn2c(-c3cccc(NC(=O)Nc4ccc(C#N)cc4)c3)ccnc12` [Example 38, ethyl 7-[3-({[(4-cyanophenyl)amino]carbonyl}amino)phenyl]pyrazolo[1,5-a]pyrimidine-3-carboxylate], the IC50 at human B-Raf (setting [1]) is above 10 µM. The inhibition at 10 µM at human B-Raf came to 20%.
Take `O=C(Nc1cccc(-c2ccnc3c(-c4cccc(CO)c4)cnn23)c1)c1cccc(C(F)(F)F)c1` [Example 286, N-(3-{3-[3-(hydroxymethyl)phenyl]pyrazolo[1,5-a]pyrimidin-7-yl}phenyl)-3-(trifluoromethyl)benzamide]: on human B-Raf, the IC50 was determined as 0.145 µM and the inhibition at 10 µM came to 77%.
With `Cc1ccc(C(=O)Nc2cccc(-c3ccnc4cc(-c5ccncc5)nn34)c2)cc1` [Example 148, 4-methyl-N-[3-(2-pyridin-4-ylpyrazolo[1,5-a]pyrimidin-7-yl)phenyl]benzamide], the IC50 at human B-Raf (setting [1]) is above 10 µM. In addition, the inhibition at 10 µM at human B-Raf was 20%.
Turning to `O=C(Nc1cccc(-c2ccnc3c(-c4ccc(F)nc4)cnn23)c1)c1cccc(C(F)(F)F)c1` [Example 311, N-{3-[3-(6-fluoropyridin-3-yl)pyrazolo[1,5-a]pyrimidin-7-yl]phenyl}-3-(trifluoromethyl)benzamide], on human B-Raf, it took 10.7 µM to reach half-maximal inhibition (IC50) and the inhibition at 10 µM is 80%.
With `Cc1cc2nccc(-c3cccc(NC(=O)c4ccc(C)c(C(F)(F)F)c4)c3)n2n1` [Example 116, 4-methyl-N-[3-(2-methylpyrazolo[1,5-a]pyrimidin-7-yl)phenyl]-3-(trifluoromethyl)benzamide], on human B-Raf (setting [1]), the IC50 was above 10 µM. The inhibition at 10 µM at human B-Raf was 31%.
For the compound `O=C(Nc1cccc(-c2ccnc3c(-c4cccnc4)cnn23)c1)Nc1cccc(C(F)(F)F)c1` [Example 173, N-[3-(3-pyridin-3-ylpyrazolo[1,5-a]pyrimidin-7-yl)phenyl]-N′-[3-(trifluoromethyl)phenyl]urea], the IC50 on human B-Raf (setting [1]) is 0.44 µM. Besides, on human B-Raf, the inhibition at 10 µM stood at 85%.
